This is an account of results in US8940720B2, “Macrocycles as factor XIa inhibitors” (Bristol-Myers Squibb Company, priority 2010, dated 2015).

Structures are written as SMILES. Counter-ions that a name gives are not always drawn.

For the assay, the target named is purified human Factor XIa (Homo sapiens (Human), UniProt P03951). Kind of assay: Factor XIa enzyme inhibition assay (chromogenic substrate S-2366). The assay is classed as biochemical. The following applies: substrate S-2366, pH 7.4. The protocol: The effectiveness of compounds of the present invention as inhibitors of the coagulation Factors XIa, VIIa, IXa, Xa, XIIa, plasma kallikrein or thrombin, can be determined using a relevant purified serine protease, respectively, and an appropriate synthetic substrate. The rate of hydrolysis of the chromogenic or fluorogenic substrate by the relevant serine protease was measured both in the absence and presence of compounds of the present invention. […] A decrease in the rate of absorbance or fluorescence change in the presence of inhibitor is indicative of enzyme inhibition. Such methods are known to one skilled in the art. The results of this assay are expressed as the inhibitory constant, Ki.
Chain of purified human Factor XIa (P03951 388-625): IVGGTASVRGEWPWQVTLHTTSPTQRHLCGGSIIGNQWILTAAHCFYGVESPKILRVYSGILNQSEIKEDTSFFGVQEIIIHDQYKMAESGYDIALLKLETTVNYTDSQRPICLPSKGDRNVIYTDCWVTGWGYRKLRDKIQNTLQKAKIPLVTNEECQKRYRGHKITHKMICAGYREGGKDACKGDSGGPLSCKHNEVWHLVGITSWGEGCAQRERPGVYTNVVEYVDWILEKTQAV
Chain of purified human Factor XIa (P03951 19-387 partner): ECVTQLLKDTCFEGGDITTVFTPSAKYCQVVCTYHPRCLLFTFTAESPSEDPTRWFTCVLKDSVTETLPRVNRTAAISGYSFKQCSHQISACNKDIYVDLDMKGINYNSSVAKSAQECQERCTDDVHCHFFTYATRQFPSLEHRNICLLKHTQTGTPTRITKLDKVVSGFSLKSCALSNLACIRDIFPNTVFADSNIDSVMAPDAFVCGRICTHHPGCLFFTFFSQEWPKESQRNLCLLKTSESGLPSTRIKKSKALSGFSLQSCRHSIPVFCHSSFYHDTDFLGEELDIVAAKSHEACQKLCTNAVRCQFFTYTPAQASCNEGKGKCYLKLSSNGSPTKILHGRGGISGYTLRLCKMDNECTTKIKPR
Values of Ki were determined by allowing the protease to react with the substrate in the presence of the inhibitor. Reactions were allowed to go for periods of 20-180 minutes (depending on the protease) and the velocities (rate of absorbance or fluorescence change versus time) were measured. The following relationships were used to calculate Ki values: (vo−vs)/vs=I/(Ki(1+S/Km)) for a competitive inhibitor with one binding site; or vs/vo=A+((B−A)/1+((IC50/(I)n))); and Ki=IC50/(1+S/Km) for a competitive inhibitor where: […]
As a reminder, the Ki is the dissociation constant of the complex between target and ligand, obtained from inhibition or displacement. A high value points to weaker binding. `COC(=O)Nc1ccc2c(c1)N[C@@H](CO)CCCC[C@H](NC(=O)/C=C/c1cc(Cl)ccc1-n1cnnn1)c1nc-2c[nH]1` [Example I-77, {(9R,14S)-14-[(E)-3-(5-Chloro-2-tetrazol-1-yl-phenyl)-acryloylamino]-9-hydroxymethyl-8,16,18-triaza-tricyclo[13.2.1.0^2,7]octadeca-1(17),2,4,6,15(18)-pentaen-5-yl}-carbamic acid methyl ester, 2 TFA salt]: the Ki was below 0.005 µM.
With `CCOC(=O)CN1CCCC[C@H](NC(=O)/C=C/c2cc(Cl)ccc2-n2cnnn2)c2nc(c[nH]2)-c2ccc(NC(=O)OC)cc2C1` [Example I-121] the figure was 0.736 µM; with `COC(=O)Nc1ccc2c(c1)NCC(F)(F)C(=O)NC[C@H](NC(=O)/C=C/c1cc(Cl)ccc1-n1cnnn1)c1nc-2c[nH]1` [Example 21, {(S)-14-[(E)-3-(5-Chloro-2-tetrazol-1-yl-phenyl)-acryloylamino]-10,10-difluoro-11-oxo-8,12,16,18-tetraaza-tricyclo[13.2.1.0^2,7]octadeca-1(17),2,4,6,15(18)-pentaen-5-yl}-carbamic acid methyl ester], 4.51 µM.
With `COC(=O)Nc1ccc2c(c1)NC(=O)CC/C=C/C[C@H](NC(=O)/C=C/c1cccc(Cl)c1)c1nc-2c(Cl)[nH]1` [Example I-309] the figure was 0.009 µM.
With `COC(=O)Nc1ccc2c(c1)NCCCCC[C@H](NC(=O)/C=C/c1cc(C)ccc1-n1cnnn1)c1nc-2c(C#N)[nH]1` [Example I-268] the figure was 0.009 µM; with `COC(=O)Nc1ccc2c(c1)NC(=O)CCCC[C@H](NC(=O)c1cc(-c3cccc(Cl)c3)no1)c1nc-2c[nH]1` [Example I-9], 1.87 µM; with `Cc1cc(F)c(C(=O)N[C@H]2C/C=C/CCC(=O)Nc3cc(NC(=O)OCCN(C)C)ccc3-c3nc2[nH]c3Cl)c(F)c1` [Example I-183, [(E)-(S)-18-Chloro-15-(2,6-difluoro-4-methyl-benzoylamino)-9-oxo-8,17,19-triaza-tricyclo[14.2.1.0^2,7]nonadeca-1(18),2,4,6,12,16(19)-hexaen-5-yl]-carbamic acid 2-dimethylamino-ethyl ester, 2 TFA], 4.95 µM.
The compound `CCOC(=O)[C@@H]1CCCC[C@H](NC(=O)/C=C/c2cc(Cl)ccc2-n2cnnn2)c2nc(c[nH]2)-c2ccc(NC(=O)OC)cc2N1` [Example I-67, (9S,14S)-14-[(E)-3-(5-Chloro-2-tetrazol-1-yl-phenyl)-acryloylamino]-5-methoxycarbonylamino-8,16,18-triaza-tricyclo[13.2.1.0^2,7]octadeca-1(17),2,4,6,15(18)-pentaene-9-carboxylic acid ethyl ester, 2 TFA salt] registered an inhibitory constant (Ki) of 0.203 µM.
In turn, `COC(=O)Nc1ccc2c(c1)NC(=O)CCCC[C@H](NC(=O)c1c(F)cc3c(ncn3C)c1F)c1nc-2c(F)[nH]1` [Example I-21] displayed a Ki below 0.005 µM.
The compound `COC(=O)Nc1ccc2c(c1)N[C@@H](C(F)(F)F)CCCC[C@H](NC(=O)/C=C/c1cc(Cl)ccc1-n1cnnn1)c1nc-2c(Cl)[nH]1` [Example I-60] showed a Ki of 0.616 µM.
The figure for `COC(=O)Nc1ccc2c(c1)C(=O)C(F)(F)CCCC[C@H](NC(=O)/C=C/c1cc(Cl)ccc1-n1cnnn1)c1nc-2c[nH]1` [Example I-270, {(S)-14-[(E)-3-(5-Chloro-2-tetrazol-1-yl-phenyl)-acryloylamino]-9,9-difluoro-8-oxo-16,18-diaza-tricyclo[13.2.1.0^2,7]octadeca-1(17),2,4,6,15(18)-pentaen-5-yl}-carbamic acid methyl ester, TFA salt] is 1.75 µM; for `COC(=O)Nc1ccc2c(c1)NC(=O)C(C)CCC[C@H](NC(=O)c1c(F)cc3c(ncn3C)c1F)c1nc-2c(Cl)[nH]1` (some centres unmarked) [Example I-57] it is 0.0066 µM.
With `COC(=O)Nc1ccc2c(c1)NC(C(F)(F)F)CCCC[C@H](NC(=O)C1CCC(CN)CC1)c1cc-2ccn1` (some centres unmarked) [II-13] the figure was below 0.005 µM; with `CCOC(=O)C1CCCC[C@H](NC(=O)/C=C/c2cc(Cl)ccc2-n2cnnn2)c2cc(ccn2)-c2ccc(NC(=O)OC)cc2N1` (some centres unmarked) [II-18], 0.572 µM; with `CCOC(=O)[C@H]1CCCC[C@H](NC(=O)/C=C/c2cc(Cl)ccc2-n2cnnn2)c2nc(c(C#N)[nH]2)-c2ccc(NC(=O)OC)cc2N1` [Example I-251, (9R,14S)-14-[(E)-3-(5-Chloro-2-tetrazol-1-yl-phenyl)-acryloylamino]-17-cyano-5-methoxycarbonylamino-8,16,18-triaza-tricyclo[13.2.1.0^2,7]octadeca-1(17),2,4,6,15(18)-pentaene-9-carboxylic acid ethyl ester, 2 TFA], below 0.005 µM.
The compound `COC(=O)Nc1ccc2c(c1)NC(=O)CC/C=C/C[C@H](NC(=O)c1ccc(C(=N)N)cc1)c1cc-2ccn1` [II-3] had a Ki below 0.005 µM.
With `COC(=O)Nc1ccc2c(c1)NC(=O)CC/C=C/C[C@H](NC(=O)c1ccc3c(c1)CCNC3)c1nc-2c[nH]1` [Example I-151] the figure was below 0.005 µM.
The compound `COC(=O)Nc1ccc2c(c1)NC(C(=O)OC)(C(F)(F)F)CCCC[C@H](NC(=O)/C=C/c1cc(Cl)ccc1-n1cnnn1)c1nc-2c[nH]1` (some centres unmarked) [Example I-104] returned an inhibition constant Ki of 0.435 µM.
The figure for `COC(=O)Nc1ccc2c(c1)NC(=O)CCCC[C@H](NC(=O)c1c(F)cc(C)cc1F)c1cc-2ccn1` [II-4] is 0.111 µM; for `NC[C@H]1CC[C@H](C(=O)N[C@H]2C/C=C/CCCc3ccccc3-c3c[nH]c2n3)CC1` [Example 3] it is 6.17 µM.
`COC(=O)c1ccc2c(c1)-c1c[nH]c(n1)[C@@H](NC(=O)/C=C/c1cc(Cl)ccc1-n1cnnn1)C/C=C/CCC(=O)N2` [Example I-284] yielded an inhibition constant Ki of 0.102 µM.
`COC(=O)Nc1ccc2c(c1)NC(=O)CC/C=C/C[C@H](NC(=O)c1ccc3c(c1)CCC[C@H]3N)c1nc-2c[nH]1` [Example I-152] displayed a Ki of 0.021 µM.
`COC(=O)Nc1ccc2c(c1)NC(=O)CC/C=C/C[C@H](NC(=O)c1ccc(C#N)cc1)c1nc-2c(Cl)[nH]1` [Example 136, [(E)-(S)-18-Chloro-15-(4-cyano-benzoylamino)-9-oxo-8,17,19-triaza-tricyclo[14.2.1.0^2,7]nonadeca-1(18),2,4,6,12,16(19)-hexaen-5-yl]-carbamic acid methyl ester, 1 TFA salt] yielded a Ki of 0.962 µM.
With `COC(=O)Nc1ccc2c(c1)NC(=O)CCCC[C@H](NC(=O)/C=C/c1cc(Cl)ccc1-n1ccnn1)c1nc-2c[nH]1` [Example I-5] the figure was below 0.005 µM; with `COC(=O)Nc1ccc2c(c1)N[C@@H](C(F)(F)F)CCCC[C@H](NC(=O)/C=C/c1cc(Cl)ccc1-n1cnnn1)c1nc-2c(C)[nH]1` [Example I-70], 0.27 µM.
The figure for `COC(=O)Nc1ccc2c(c1)NC(C(F)(F)F)CCCC[C@H](NC(=O)c1ccc(C(=N)N)cc1)c1cc-2ccn1` (some centres unmarked) [II-15] is 4.16 µM; for `COC(=O)Nc1ccc2c(c1)OCCCCC[C@H](NC(=O)/C=C/c1cc(Cl)ccc1-n1cnnn1)c1nc-2c(Cl)[nH]1` [Example 9, {(S)-17-Chloro-14-[(E)-3-(5-chloro-2-tetrazol-1-yl-phenyl)-acryloylamino]-8-oxa-16,18-diaza-tricyclo[13.2.1.0^2,7]octadeca-1(17),2,4,6,15(18)-pentaen-5-yl}-carbamic acid methyl ester] it is 0.249 µM; for `O=C(/C=C/c1cc(Cl)ccc1-n1cnnn1)N[C@H]1C/C=C/COC(=O)Nc2ccccc2-c2nc1[nH]c2Cl` [Example 121, (E)-N-((E)-(S)-18-Chloro-9-oxo-10-oxa-8,17,19-triaza-tricyclo[14.2.1.0^2,7]nonadeca-1(18),2,4,6,12,16(19)-hexaen-15-yl)-3-(5-chloro-2-tetrazol-1-yl-phenyl)-acrylamide] it is below 0.005 µM.
The figure for `CCOC(=O)[C@@H]1CCCC[C@H](NC(=O)/C=C/c2c(-n3cnnn3)ccc(Cl)c2F)c2cc(ccn2)-c2ccc(NC(=O)OCCOC)cc2N1` [II-43] is 0.938 µM; for `COC(=O)Nc1ccc2c(c1)NC(=O)CC/C=C/C[C@H](NC(=O)[C@H]1CC[C@H](CN)CC1)c1cc-2ccn1` [Example 90, {(E)-(S)-15-[(4-Aminomethyl-cyclohexanecarbonyl)-amino]-9-oxo-8,17-diaza-tricyclo[14.3.1.0^2,7]icosa-1(20),2(7),3,5,12,16,18-heptaen-5-yl}-carbamic acid methyl ester] it is below 0.005 µM.
The compound `COC(=O)Nc1ccc2c(c1)NS(=O)(=O)CC=CC[C@H](NC(=O)/C=C/c1cc(Cl)ccc1-n1cnnn1)c1nc-2c[nH]1` (stereo in doubt) [Example 19, {(E)-(S)-14-[(E)-3-(5-Chloro-2-tetrazol-1-yl-phenyl)-acryloylamino]-9,9-dioxo-9λ^6-thia-8,16,18-triaza-tricyclo[13.2.1.0^2,7]octadeca-1(17),2,4,6,11,15(18)-hexaen-5-yl}-carbamic acid methyl ester] displayed an inhibitory constant (Ki) of 0.096 µM.
With `COC(=O)Nc1ccc2c(c1)CCC/C=C/C[C@H](NC(=O)/C=C/c1cc(Cl)ccc1-n1cnnn1)c1nc-2c[nH]1` [Example 4, {(E)-(S)-14-[(E)-3-(5-Chloro-2-tetrazol-1-yl-phenyl)-acryloylamino]-16,18-diaza-tricyclo[13.2.1.0^2,7]octadeca-1(17),2,4,6,11,15(18)-hexaen-5-yl}-carbamic acid methyl ester] the figure was 0.636 µM.
